# According to PubChem BioAssay (NCI):
#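 Method: 48-hour compound exposure of cells in 96-well plates, five concentrations, linear interpolation of endpoints. The concentration for full growth arrest is given as TGI.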
# Legend:
# Experiment in all cases: NCI anticancer screen, dose series, 48 h
# [1] = test system: RPMI-8226 leukemia
# [2] = test system: CCRF-CEM leukemia
# [3] = test system: OVCAR-5 ovarian
# [4] = test system: SK-MEL-28 melanoma
# [5] = test system: DU-145 prostate
# [6] = test system: RXF 393 renal
# [7] = test system: MOLT-4 leukemia
# [8] = test system: SR leukemia
# [9] = test system: NCI-H226 lung
# [10] = test system: PC-3 prostate
# [11] = test system: LOX IMVI melanoma
# [12] = test system: SW-620 colon
SMILES,TGI [1] [µM],TGI [2] [µM],TGI [3] [µM],TGI [4] [µM],TGI [5] [µM],TGI [6] [µM],TGI [7] [µM],TGI [8] [µM],TGI [9] [µM],TGI [10] [µM],TGI [11] [µM],TGI [12] [µM]
CCOC(=O)C(O)(CC1=NC(C(=O)OC)(C(=O)OC)C(c2cccc(C=O)c2)O1)C(=O)OCC (stereo unspecified),> 100,> 100,> 100,> 100,> 100,> 100,> 100,> 100,> 100,> 100,> 100,> 100
COCN1C(=O)[C@@H]2CCCN2C(=O)c2ccc(N)cc21,> 100,> 100,> 100,> 100,> 100,> 100,> 100,> 100,> 100,> 100,> 100,> 100
O=c1c(-c2nc3ccccc3c3ccccc3c2=O)nc2ccccc2c2ccccc12,> 100,86.8,> 100,> 100,> 100,82.9,> 100,61,> 100,89.6,> 100,> 100
Cc1sc(/N=C/C2=C(O)CC(C)(C)CC2=O)nc1-c1ccccc1,> 100,> 100,> 100,> 100,> 100,> 100,> 100,> 100,> 100,> 100,> 100,> 100
CC(=O)OCC1OC(OCCCOP(=O)(OCCC#N)OCC2OC(n3cnc4c(N)ncnc43)C(OC(=O)c3ccccc3)C2OC(=O)c2ccccc2)C(OC(C)=O)C(OC(C)=O)C1OC(C)=O (stereo unspecified),> 100,> 100,> 100,> 100,> 100,> 100,> 100,> 100,> 100,> 100,> 100,> 100
Cc1nc2ccc(NCCN(C)C)c3c(=O)c4ccccc4n1c23,26.2,47.5,21,21,6.87,22.9,22.2,10.6,8.69,8.8,2.96,9.15
CN(C)S(=O)(=O)c1ccc2[nH]c(O)c(C3=Nc4ccccc4C3=O)c2c1,> 100,> 100,> 100,> 100,94,14.2,36.2,35.9,81.3,90.4,> 100,> 100
CCOP1(=O)CC(C)=C(Cl)C(OC)C1 (stereo unspecified),> 100,> 100,> 100,> 100,> 100,> 100,> 100,> 100,> 100,> 100,> 100,> 100
COc1ccc(-c2nc3ccccc3c(=O)[nH]2)cc1,> 100,> 100,> 100,> 100,> 100,> 100,> 100,> 100,> 100,> 100,> 100,> 100
COc1cccc(NC(=O)CC(=O)NN)c1,> 100,> 100,> 100,> 100,> 100,> 100,> 100,> 100,> 100,> 100,> 100,> 100
CCOC(=O)[C@@]12C[C@](/C=C/OC)(O[Si](C)(C)C)[C@@]13c1cc(OC)c(OC)cc1CCN3C(=O)C2=O,> 100,> 100,> 100,> 100,> 100,> 100,> 100,> 100,> 100,> 100,> 100,> 100
NC(Cc1ccccc1)C(=O)OCN1C(=O)C2C3C=CC(C2C1=O)C1C(=O)N(COC(=O)C(N)Cc2ccccc2)C(=O)C31 (stereo unspecified),48,49.7,> 100,> 100,> 100,> 100,51.3,53.4,> 100,> 100,42.2,77.3
S=C(NCc1ccccn1)N/N=C/c1ccccn1,< 0.01,< 0.011,> 100,> 100,> 100,4.52,< 0.0357,0.0113,0.163,> 84.9,33.3,> 100
CC(C)c1cc(=O)[nH]c2cc(N)ccc12,> 100,> 100,> 100,> 100,> 100,> 100,> 100,> 100,> 100,> 100,> 100,> 100
COC(=O)c1ccccc1C1CN=NC12Cc1ccc(C)cc1C2=O (stereo unspecified),> 100,> 100,> 100,> 100,> 100,> 100,> 100,> 100,> 100,> 100,> 100,> 100
NC(=S)NNCC(=O)CC(O)(C(F)(F)F)C(F)(F)Cl (stereo unspecified),> 100,> 100,> 100,> 100,> 100,> 100,> 100,> 100,> 100,> 100,> 100,> 100
Nc1nc(N)c2nc(CN(C=O)c3ccc(C(=O)O)cc3)cnc2n1,> 100,> 100,> 100,> 100,> 100,> 100,> 100,> 100,> 100,> 100,> 100,> 100
Cc1cccc2c(=O)c3c(O)cc(O)cc3n(C)c12,> 100,> 100,> 100,> 100,> 100,> 100,> 100,> 100,> 100,> 100,> 100,> 100
O=C1c2cc3c(cc2NC(c2ccccc2F)C1O)OCO3 (stereo unspecified),> 100,97.7,> 75.9,> 79.4,> 100,> 64.9,> 83.9,> 37.9,> 64.7,> 100,> 100,> 100
NC(CCC(=O)c1ccccn1)C(=O)O (stereo unspecified),> 100,> 100,> 100,> 100,> 100,> 100,> 100,> 100,> 100,> 100,> 100,> 100
Nc1nc(Cl)c(CO)c(NCC2(CO)CCC2)n1,> 100,> 100,> 100,> 100,> 100,> 100,> 100,> 100,> 100,> 100,> 100,> 100
COc1cc(/C=C(\C)[N+](=O)[O-])cc(OC)c1,9.04,5.77,36.1,33.2,44.6,13.1,6.16,7.04,> 94.7,34.8,11.9,9.16
CC(=O)O[C@H]1[C@@H](N2CCOCC2)C[C@H]2[C@@H]3CC=C4C[C@@H](N5CCCC5)CC[C@]4(C)[C@H]3CC[C@@]21C,> 100,> 100,> 100,> 100,> 100,> 100,> 100,83.7,> 100,> 100,> 100,> 100
